From ChEMBL document CHEMBL1944593, “Heteroaromatic-aminomethyl quinolones: potent and selective iNOS inhibitors” (Bioorg Med Chem Lett, 2012)

Key:
Homo sapiens = species: Homo sapiens; assay: Selectivity ratio of IC50 for human eNOS to IC50 for human iNOS
[1] = target: Nitric oxide synthase, inducible (Homo sapiens, UniProt P35228); assay: Inhibition of human iNOS expressed in HEK293 cells assessed as NO production by 2,3-diaminonapthalene-based fluorescence assay; assay type: cell-based
Nitric oxide synthase 3 = target: T1, Nitric oxide synthase 3 (Homo sapiens, UniProt P29474); assay: Inhibition of human eNOS expressed in HEK293 cells assessed as NO production by 2,3-diaminonapthalene-based fluorescence assay; assay type: cell-based
T1 sequence (P29474 whole entry): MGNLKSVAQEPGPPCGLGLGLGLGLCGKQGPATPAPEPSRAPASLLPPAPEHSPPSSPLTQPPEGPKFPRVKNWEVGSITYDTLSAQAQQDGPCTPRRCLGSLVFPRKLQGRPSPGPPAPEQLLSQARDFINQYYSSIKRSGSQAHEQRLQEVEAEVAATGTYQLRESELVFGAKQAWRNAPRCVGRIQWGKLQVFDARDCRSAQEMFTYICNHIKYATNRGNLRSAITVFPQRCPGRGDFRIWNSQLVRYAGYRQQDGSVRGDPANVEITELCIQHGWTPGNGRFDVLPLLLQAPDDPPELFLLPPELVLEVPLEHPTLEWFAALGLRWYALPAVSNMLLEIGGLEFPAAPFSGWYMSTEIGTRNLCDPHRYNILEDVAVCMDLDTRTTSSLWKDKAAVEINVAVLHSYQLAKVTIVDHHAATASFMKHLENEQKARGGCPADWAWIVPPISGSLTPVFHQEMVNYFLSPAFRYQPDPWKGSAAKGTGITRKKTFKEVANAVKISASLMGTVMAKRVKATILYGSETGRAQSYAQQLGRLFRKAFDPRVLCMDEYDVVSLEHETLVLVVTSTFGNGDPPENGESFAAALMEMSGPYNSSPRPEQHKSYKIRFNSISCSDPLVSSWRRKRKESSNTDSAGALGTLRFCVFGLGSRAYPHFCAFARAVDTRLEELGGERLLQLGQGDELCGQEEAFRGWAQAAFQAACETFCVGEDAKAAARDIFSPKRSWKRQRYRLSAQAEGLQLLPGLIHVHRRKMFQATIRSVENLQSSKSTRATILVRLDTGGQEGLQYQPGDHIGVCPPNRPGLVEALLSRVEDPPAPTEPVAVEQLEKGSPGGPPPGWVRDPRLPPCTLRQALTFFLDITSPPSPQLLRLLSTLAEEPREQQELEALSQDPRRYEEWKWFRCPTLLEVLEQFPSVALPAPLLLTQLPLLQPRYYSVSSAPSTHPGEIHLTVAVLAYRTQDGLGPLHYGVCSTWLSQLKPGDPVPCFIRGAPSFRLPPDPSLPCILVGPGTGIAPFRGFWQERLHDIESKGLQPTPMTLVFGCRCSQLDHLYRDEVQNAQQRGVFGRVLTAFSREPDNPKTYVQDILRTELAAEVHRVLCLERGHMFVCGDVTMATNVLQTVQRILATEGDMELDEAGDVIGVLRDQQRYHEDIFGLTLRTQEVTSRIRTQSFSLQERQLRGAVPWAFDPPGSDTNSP

[2] = Half life in mouse liver microsomes; assay type: ADME, Microsome
Nitric oxide synthase 1 = Nitric oxide synthase 1 (Homo sapiens, UniProt P29475); assay: Inhibition of human nNOS expressed in HEK293 cells assessed as NO production by 2,3-diaminonapthalene-based fluorescence assay; assay type: cell-based
[3] = target: Nitric oxide sythases; iNOS & nNOS (Homo sapiens) (UniProt P29475+P35228); assay: Selectivity ratio of IC50 for human nNOS to IC50 for human iNOS
Mus musculus [4] = assay: Antiinflammatory activity in mouse assessed as reduction in LPS-induced nitatre level in plasma at 30 mg/kg, po; assay type: functional; set-up: scale not given: the % may be the effect or the level left
[5] = Half life in mouse; assay type: ADME, organism-based; settings: in vivo
[6] = Oral bioavailability in mouse at 10 mg/kg; assay type: ADME, organism-based; settings: in vivo
[7] = AUC in mouse at 10 mg/kg, po; assay type: ADME, organism-based; set-up: dose 10 mg/kg, route oral; settings: plasma
[8] = Cmax in mouse at 10 mg/kg, po; assay type: ADME, organism-based; set-up: dose 10 mg/kg, route oral; settings: in vivo
[9] = target: T2, Nitric oxide synthase, inducible (Mus musculus, UniProt P29477); assay: Inhibition of mouse iNOS
T2 sequence (P29477 whole entry): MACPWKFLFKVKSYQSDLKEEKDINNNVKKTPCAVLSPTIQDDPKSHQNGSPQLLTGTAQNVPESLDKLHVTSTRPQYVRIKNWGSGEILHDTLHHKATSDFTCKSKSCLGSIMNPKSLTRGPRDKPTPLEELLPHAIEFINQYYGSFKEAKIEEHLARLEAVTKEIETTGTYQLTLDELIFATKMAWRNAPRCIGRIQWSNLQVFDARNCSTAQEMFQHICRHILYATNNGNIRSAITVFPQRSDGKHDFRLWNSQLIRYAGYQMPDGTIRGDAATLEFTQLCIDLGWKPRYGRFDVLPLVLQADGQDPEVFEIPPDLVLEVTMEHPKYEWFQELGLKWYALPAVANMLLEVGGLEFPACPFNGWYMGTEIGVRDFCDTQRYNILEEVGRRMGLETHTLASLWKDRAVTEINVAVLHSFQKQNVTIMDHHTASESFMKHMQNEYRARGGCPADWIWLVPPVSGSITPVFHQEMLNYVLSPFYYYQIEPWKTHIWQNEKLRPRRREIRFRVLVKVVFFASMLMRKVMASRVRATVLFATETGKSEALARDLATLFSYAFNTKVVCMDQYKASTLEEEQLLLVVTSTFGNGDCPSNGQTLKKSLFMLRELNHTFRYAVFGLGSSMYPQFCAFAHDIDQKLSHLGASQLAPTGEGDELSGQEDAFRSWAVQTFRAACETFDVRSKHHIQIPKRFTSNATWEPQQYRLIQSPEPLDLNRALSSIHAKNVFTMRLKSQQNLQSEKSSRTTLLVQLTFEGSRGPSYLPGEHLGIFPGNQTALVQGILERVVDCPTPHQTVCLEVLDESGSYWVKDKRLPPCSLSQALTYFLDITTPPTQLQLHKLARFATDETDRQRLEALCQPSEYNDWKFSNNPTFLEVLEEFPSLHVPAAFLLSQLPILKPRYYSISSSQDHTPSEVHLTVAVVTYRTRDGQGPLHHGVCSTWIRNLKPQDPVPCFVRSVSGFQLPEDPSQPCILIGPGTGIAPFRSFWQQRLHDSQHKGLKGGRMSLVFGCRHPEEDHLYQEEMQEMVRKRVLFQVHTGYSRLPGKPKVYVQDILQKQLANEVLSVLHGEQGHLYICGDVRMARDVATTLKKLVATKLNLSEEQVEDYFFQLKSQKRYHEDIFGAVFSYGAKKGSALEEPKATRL

Mus musculus [10] = assay: Antiinflammatory activity in po dosed mouse assessed as reduction in LPS-induced nitatre level in plasma; assay type: functional
[11] = Volume of distribution at steady state in mouse; assay type: ADME, organism-based; settings: in vivo, read-out: Vdss
[12] = Plasma clearance in mouse; assay type: ADME, organism-based
[13] = target: T3, Nitric oxide synthase 3 (Homo sapiens) (UniProt P29474); assay: Inhibition of human eNOS expressed in HEK293 cells assessed as NO production at 30 uM by 2,3-diaminonapthalene-based fluorescence assay; assay type: cell-based
T3 sequence (whole entry): T1 sequence (P29474 whole entry)

Sequence of Nitric oxide sythases; iNOS & nNOS (Homo sapiens) (P29475 whole entry, looked up): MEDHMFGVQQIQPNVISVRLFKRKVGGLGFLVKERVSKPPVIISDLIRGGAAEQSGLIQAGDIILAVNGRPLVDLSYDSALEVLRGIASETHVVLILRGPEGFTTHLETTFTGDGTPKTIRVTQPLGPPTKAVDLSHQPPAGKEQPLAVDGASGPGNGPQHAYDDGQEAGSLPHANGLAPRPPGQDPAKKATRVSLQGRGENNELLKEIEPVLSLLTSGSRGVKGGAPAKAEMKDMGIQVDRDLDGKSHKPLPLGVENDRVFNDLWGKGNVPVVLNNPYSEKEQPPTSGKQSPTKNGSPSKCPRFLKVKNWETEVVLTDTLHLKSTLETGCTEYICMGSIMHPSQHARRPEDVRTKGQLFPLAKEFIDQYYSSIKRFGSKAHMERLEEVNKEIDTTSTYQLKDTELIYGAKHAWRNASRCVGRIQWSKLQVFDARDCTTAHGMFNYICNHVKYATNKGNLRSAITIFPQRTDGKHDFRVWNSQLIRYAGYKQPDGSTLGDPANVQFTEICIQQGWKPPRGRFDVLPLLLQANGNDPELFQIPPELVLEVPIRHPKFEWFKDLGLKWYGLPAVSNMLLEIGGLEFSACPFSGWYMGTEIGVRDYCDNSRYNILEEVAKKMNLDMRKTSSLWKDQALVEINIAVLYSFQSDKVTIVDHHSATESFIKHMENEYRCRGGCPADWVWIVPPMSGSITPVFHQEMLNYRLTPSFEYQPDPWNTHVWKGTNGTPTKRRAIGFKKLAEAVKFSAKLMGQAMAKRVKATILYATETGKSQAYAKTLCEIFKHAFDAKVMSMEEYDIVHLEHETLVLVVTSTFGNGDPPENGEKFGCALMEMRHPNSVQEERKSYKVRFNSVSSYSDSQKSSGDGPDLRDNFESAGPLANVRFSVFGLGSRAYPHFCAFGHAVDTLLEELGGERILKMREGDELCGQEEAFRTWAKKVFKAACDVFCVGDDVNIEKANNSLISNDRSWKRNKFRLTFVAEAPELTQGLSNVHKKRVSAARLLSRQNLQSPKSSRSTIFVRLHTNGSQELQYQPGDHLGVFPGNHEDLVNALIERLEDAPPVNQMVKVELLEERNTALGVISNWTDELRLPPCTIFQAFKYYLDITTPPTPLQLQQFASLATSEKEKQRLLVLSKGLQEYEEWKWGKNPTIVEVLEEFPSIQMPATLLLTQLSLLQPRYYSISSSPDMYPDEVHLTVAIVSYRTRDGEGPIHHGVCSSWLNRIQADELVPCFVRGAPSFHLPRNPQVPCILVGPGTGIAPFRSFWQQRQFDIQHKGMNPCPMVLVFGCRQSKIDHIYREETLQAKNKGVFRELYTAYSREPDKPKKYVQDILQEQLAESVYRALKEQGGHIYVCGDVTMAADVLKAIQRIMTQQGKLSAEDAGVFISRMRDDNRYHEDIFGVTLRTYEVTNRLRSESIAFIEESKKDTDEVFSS
Sequence of Nitric oxide sythases; iNOS & nNOS (Homo sapiens) (P35228 whole entry, looked up): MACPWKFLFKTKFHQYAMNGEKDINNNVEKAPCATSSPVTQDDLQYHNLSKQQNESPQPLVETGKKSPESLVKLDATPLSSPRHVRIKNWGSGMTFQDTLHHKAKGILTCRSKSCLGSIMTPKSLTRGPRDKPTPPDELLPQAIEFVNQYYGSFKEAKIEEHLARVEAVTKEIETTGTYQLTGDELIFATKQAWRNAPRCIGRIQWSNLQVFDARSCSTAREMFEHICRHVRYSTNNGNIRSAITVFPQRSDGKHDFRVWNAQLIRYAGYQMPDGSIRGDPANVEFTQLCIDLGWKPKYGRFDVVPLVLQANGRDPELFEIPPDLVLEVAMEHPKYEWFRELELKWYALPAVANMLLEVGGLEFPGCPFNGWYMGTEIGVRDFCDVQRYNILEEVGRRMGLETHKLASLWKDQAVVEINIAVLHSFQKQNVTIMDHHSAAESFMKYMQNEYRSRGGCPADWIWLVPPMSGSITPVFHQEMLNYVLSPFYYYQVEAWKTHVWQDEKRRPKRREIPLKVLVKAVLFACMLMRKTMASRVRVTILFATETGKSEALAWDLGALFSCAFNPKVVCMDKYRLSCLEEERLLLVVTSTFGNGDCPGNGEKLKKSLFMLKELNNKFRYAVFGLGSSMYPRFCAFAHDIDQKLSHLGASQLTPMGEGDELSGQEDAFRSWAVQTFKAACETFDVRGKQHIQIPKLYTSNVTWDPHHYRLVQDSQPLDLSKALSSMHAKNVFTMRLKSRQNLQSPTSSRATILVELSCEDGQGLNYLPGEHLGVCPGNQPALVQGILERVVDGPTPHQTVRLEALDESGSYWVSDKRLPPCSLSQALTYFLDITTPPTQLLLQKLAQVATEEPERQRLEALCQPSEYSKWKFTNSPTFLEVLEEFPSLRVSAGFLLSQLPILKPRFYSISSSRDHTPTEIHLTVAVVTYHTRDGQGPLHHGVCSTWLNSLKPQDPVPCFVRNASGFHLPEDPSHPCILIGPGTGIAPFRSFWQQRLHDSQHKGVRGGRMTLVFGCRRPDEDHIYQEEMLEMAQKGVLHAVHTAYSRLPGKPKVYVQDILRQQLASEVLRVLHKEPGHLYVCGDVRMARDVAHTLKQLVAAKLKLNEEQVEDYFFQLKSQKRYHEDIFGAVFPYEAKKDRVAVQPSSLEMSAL
Sequence of Nitric oxide synthase 1 (P29475 whole entry): as the sequence (P29475 whole entry, looked up) above
Sequence of Nitric oxide synthase, inducible (Homo sapiens, UniProt P35228) (P35228 whole entry): as the sequence (P35228 whole entry, looked up) above

Structure (SMILES)	Ratio IC50 (Homo sapiens)	IC50 [1]	IC50 (Nitric oxide synthase 3)	IC50 (Nitric oxide synthase 1)	Ratio IC50 [3]	also measured
Cn1ncc2c(N(Cc3cc(=O)[nH]c4c(F)c(F)ccc34)c3cccc(Cl)c3)ncnc21	730	11 nM	8300 nM	62 nM		half-life [2]: < 0.5 h
O=c1cc(CN(Cc2ccccc2Cl)c2cnccn2)c2ccc(F)c(F)c2[nH]1	1000	12 nM	12000 nM	60 nM	5	
Cc1nccc(N(Cc2cc(=O)[nH]c3c(F)c(F)ccc23)c2cccc(Cl)c2)n1	230	33 nM	7500 nM	213 nM	7	Activity (Mus musculus [4]): 55%; half-life [2]: 1.5 h
Fc1ccc2c(CN(c3cccc(Cl)c3)c3ncccn3)cncc2c1F	> 1000	200 nM				
O=c1cc(CN(c2cccc(Cl)c2)c2cnccn2)c2ccc(F)c(F)c2[nH]1	300	5 nM	1500 nM	12 nM	2	half-life [5]: 2.1 h; bioavailability [6]: 3%; AUC [7]: 120 ng·h/mL; Cmax [8]: 45 ng/mL; IC50 [9]: 5 nM; ED50 (Mus musculus [10]): 3.6 mg/kg; Vd [11]: 1.7 L/kg; Activity (Mus musculus [4]): 80%; clearance [12]: 34 mL/min/kg
O=c1cc(CN(c2cccc(Cl)c2)c2ncccn2)c2ccc(F)c(F)c2[nH]1	425	13 nM	5500 nM	69 nM	5	
O=c1cc(CN(Cc2cccc(Cl)c2)c2cnccn2)c2ccc(F)c(F)c2[nH]1	40	220 nM	8300 nM	330 nM	2	half-life [2]: < 0.333 h
O=c1cc(CN(c2ccccc2)c2cccc(Cl)c2)c2ccc(F)c(F)c2[nH]1	> 20	1500 nM	> 30000 nM			inhibition [13]: < 50%
O=c1cc(CN(c2cccc(Cl)c2)c2ccncn2)c2ccc(F)c(F)c2[nH]1	1000	14 nM	13000 nM	150 nM	11	
Cc1cccnc1N(Cc1cc(=O)[nH]c2c(F)c(F)ccc12)c1cccc(Cl)c1	> 85	350 nM	> 30000 nM			inhibition [13]: < 50%
O=c1cc(CN(Cc2ccccc2)c2cnccn2)c2ccc(F)c(F)c2[nH]1	500	13 nM	6400 nM	100 nM	8	
COc1cc(N(Cc2cc(=O)[nH]c3c(F)c(F)ccc23)c2cccc(Cl)c2)ncn1	> 500	61 nM	> 30000 nM	130 nM	2	inhibition [13]: < 50%
O=c1cc(CN(c2cncnc2)c2cccc(Cl)c2)c2ccc(F)c(F)c2[nH]1	375	210 nM	79000 nM	1600 nM	8	
O=c1cc(CN(Cc2ccccc2F)c2cnccn2)c2ccc(F)c(F)c2[nH]1	900	12 nM	11000 nM	64 nM	5	
O=c1cc(CN(c2cccnc2)c2cccc(Cl)c2)c2ccc(F)c(F)c2[nH]1	180	77 nM	14000 nM	370 nM	5	
O=c1cc(CN(c2cccc(Cl)c2)c2ccccn2)c2ccc(F)c(F)c2[nH]1	> 1000	31 nM	> 30000 nM	170 nM	5	inhibition [13]: < 50%
O=c1cc(CN(c2ccncc2)c2cccc(Cl)c2)c2ccc(F)c(F)c2[nH]1	170	130 nM	23000 nM	240 nM	2	
Cc1ccccc1CN(Cc1cc(=O)[nH]c2c(F)c(F)ccc12)c1cnccn1	1300	10 nM	13000 nM	46 nM	5	
[O-][n+]1cc(CN(c2cccc(Cl)c2)c2ncccn2)c2ccc(F)c(F)c2c1	> 1000	17 nM			9	
CN(C)c1nccc(N(Cc2cc(=O)[nH]c3c(F)c(F)ccc23)c2cccc(Cl)c2)n1	> 20	1300 nM	> 30000 nM			inhibition [13]: < 50%
O=c1cc(CN(c2cccc(Cl)c2)c2cccnn2)c2ccc(F)c(F)c2[nH]1	500	43 nM	21000 nM	360 nM	8	
O=c1cc(Cn2c(C3CCC3)nc3nccnc32)c2ccc(F)c(F)c2[nH]1		91 nM				AUC [7]: 25000 ng·h/mL; IC50 [9]: 500 nM; ED50 (Mus musculus [10]): 1 mg/kg; Vd [11]: 0.4 L/kg
O=c1cc(CN(Cc2ccc(Cl)cc2)c2cnccn2)c2ccc(F)c(F)c2[nH]1	90	77 nM	7100 nM	120 nM	2	half-life [2]: < 0.333 h
O=c1cc(CN(Cc2ccccn2)c2cnccn2)c2ccc(F)c(F)c2[nH]1	140	78 nM	11000 nM	440 nM	6	half-life [2]: < 0.333 h
Cc1cc(N(Cc2cc(=O)[nH]c3c(F)c(F)ccc23)c2cccc(Cl)c2)ncn1	> 500	53 nM	> 30000 nM	160 nM	3	inhibition [13]: < 50%
CN(C)c1cc(N(Cc2cc(=O)[nH]c3c(F)c(F)ccc23)c2cccc(Cl)c2)ncn1	> 1000	28 nM	> 30000 nM	500 nM	20	inhibition [13]: < 50%
